From ChEMBL document CHEMBL1201862, “PubChem BioAssay data set” (2004)
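A five-concentration, 48-hour dose response in 96-well plates underlies each endpoint, interpolated linearly between surrounding concentrations. Here, GI50 denotes the concentration required for 50% inhibition of growth.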 Calls of active or inactive are those of the source. Cut-off read from the data, not from the text of the source: active = GI50 up to about 1.1 µM and inactive = higher.

Assays:
Assay in all cases: DTP human tumour cell line panel, 48 h
TK-10 = test system: TK-10
MDA-N = test system: MDA-N
Malme-3M = test system: Malme-3M
SR = test system: SR
K562 = test system: K562
A549 = test system: A549
EKVX = test system: EKVX
786-0 = test system: 786-0
U-251 = test system: U-251
A498 = test system: A498
HCC 2998 = test system: HCC 2998
OVCAR-8 = test system: OVCAR-8
SK-OV-3 = test system: SK-OV-3
SK-MEL-2 = test system: SK-MEL-2
IGROV-1 = test system: IGROV-1
OVCAR-4 = test system: OVCAR-4
HCT-116 = test system: HCT-116
UO-31 = test system: UO-31
HT-29 = test system: HT-29
T47D = test system: T47D

| SMILES | GI50 (TK-10) | GI50 (MDA-N) | GI50 (Malme-3M) | GI50 (SR) | GI50 (K562) | GI50 (A549) | GI50 (EKVX) | GI50 (786-0) | GI50 (U-251) | GI50 (A498) | GI50 (HCC 2998) | GI50 (OVCAR-8) | GI50 (SK-OV-3) | GI50 (SK-MEL-2) | GI50 (IGROV-1) | GI50 (OVCAR-4) | GI50 (HCT-116) | GI50 (UO-31) | GI50 (HT-29) | GI50 (T47D) |
| --- | --- | --- | --- | --- | --- | --- | --- | --- | --- | --- | --- | --- | --- | --- | --- | --- | --- | --- | --- | --- |
| CC(C)N(CC(=O)O)CC(=O)O | > 100 µM (inactive) | > 100 µM (inactive) | > 100 µM (inactive) | > 100 µM (inactive) | > 100 µM (inactive) | > 100 µM (inactive) | > 100 µM (inactive) | > 100 µM (inactive) | > 100 µM (inactive) | > 100 µM (inactive) | > 100 µM (inactive) | > 100 µM (inactive) | > 100 µM (inactive) | > 100 µM (inactive) | > 100 µM (inactive) | > 100 µM (inactive) | > 100 µM (inactive) | > 100 µM (inactive) | > 100 µM (inactive) | > 100 µM (inactive) |
| CC(=O)OCC1OC(n2c(N)c(C#N)c(-c3cccc(Cl)c3)c(C#N)c2=S)C(OC(C)=O)C(OC(C)=O)C1OC(C)=O (stereo not drawn) | 19.9 µM (inactive) | 19.1 µM (inactive) | 25.2 µM (inactive) | 14.7 µM (inactive) | 28.2 µM (inactive) | 24.3 µM (inactive) | 27.2 µM (inactive) | 22.2 µM (inactive) | 22.8 µM (inactive) | 20.6 µM (inactive) | 10.8 µM (inactive) | 14.9 µM (inactive) | 20.7 µM (inactive) | 19 µM (inactive) | 30.5 µM (inactive) | 16.7 µM (inactive) | 22.4 µM (inactive) | 40.2 µM (inactive) | 24.5 µM (inactive) | 18.9 µM (inactive) |
| Nc1cc2c3c(cccc3c1)C(=O)N(c1ccc(OCCN3CCCC3)cc1)C2=O | 17.5 µM (inactive) | 16.6 µM (inactive) | 17.7 µM (inactive) | 17.9 µM (inactive) | 14.5 µM (inactive) | 16.2 µM (inactive) | 18.4 µM (inactive) | 15.2 µM (inactive) | 25.6 µM (inactive) | 36.5 µM (inactive) | 17.5 µM (inactive) | 15.9 µM (inactive) | 1.61 µM (inactive) | 19.4 µM (inactive) | 16.3 µM (inactive) | 17.1 µM (inactive) | 14.7 µM (inactive) | 15.1 µM (inactive) | 13.5 µM (inactive) | 21.2 µM (inactive) |
| NC1CC(=O)c2cc(Br)sc21 (stereo not drawn) | > 100 µM (inactive) | > 100 µM (inactive) | > 100 µM (inactive) | > 100 µM (inactive) | > 100 µM (inactive) | > 100 µM (inactive) | > 100 µM (inactive) | > 100 µM (inactive) | > 100 µM (inactive) | > 100 µM (inactive) | > 100 µM (inactive) | > 100 µM (inactive) | > 100 µM (inactive) | > 100 µM (inactive) | > 100 µM (inactive) | – | > 100 µM (inactive) | > 100 µM (inactive) | > 100 µM (inactive) | > 100 µM (inactive) |
| c1ccc(CSc2ccccc2CN2CCN(Cc3ccccc3SCc3ccccc3)CCN(Cc3ccccc3SCc3ccccc3)CC2)cc1 | 2.3 µM (inactive) | 1.52 µM (inactive) | 1.71 µM (inactive) | 2.16 µM (inactive) | 0.989 µM (active) | 2.35 µM (inactive) | 1.2 µM (inactive) | 1.61 µM (inactive) | 0.869 µM (active) | 2.25 µM (inactive) | 1.09 µM (active) | 1.22 µM (inactive) | 2.21 µM (inactive) | 1.45 µM (inactive) | – | 1.45 µM (inactive) | 0.646 µM (active) | 2.59 µM (inactive) | 0.499 µM (active) | 1.43 µM (inactive) |
| COc1ccc(C2=Nn3c(C)nnc3S/C2=C\c2ccc(-c3ccc([N+](=O)[O-])cc3)o2)cc1 | 13.7 µM (inactive) | 6.62 µM (inactive) | 30.1 µM (inactive) | 3.21 µM (inactive) | 3.55 µM (inactive) | 20 µM (inactive) | 27.9 µM (inactive) | 4.94 µM (inactive) | 9.33 µM (inactive) | 31.2 µM (inactive) | 7.41 µM (inactive) | 3.62 µM (inactive) | 64.1 µM (inactive) | 13.3 µM (inactive) | 20.8 µM (inactive) | 22.2 µM (inactive) | 11 µM (inactive) | 15.1 µM (inactive) | 14.2 µM (inactive) | 4.88 µM (inactive) |
| O=C1NC(Nc2cccc(Cl)c2)=N/C1=C\c1ccc(Cl)c(Cl)c1 | 9.35 µM (inactive) | 4.52 µM (inactive) | 14.1 µM (inactive) | 2.82 µM (inactive) | 3.33 µM (inactive) | 3.8 µM (inactive) | 3.67 µM (inactive) | 3.76 µM (inactive) | 4.02 µM (inactive) | 4.37 µM (inactive) | 2.28 µM (inactive) | 4.34 µM (inactive) | 12.4 µM (inactive) | 2.44 µM (inactive) | 5.66 µM (inactive) | 1.9 µM (inactive) | 3.94 µM (inactive) | 7.29 µM (inactive) | 6.73 µM (inactive) | 3.52 µM (inactive) |
